Peptide text beside a SMILES is read from it.
How the values were obtained:
[1] = pH of peptide solutions in deionized water; assay type: physicochemical
Protocol: The pH of the peptides in deionized water to provide a peptide solution were measured at various concentrations. […] ST14 and T14 were tested. The recorded pH values ranged from about 1.9 to about 2.5.

[2] = Atomic Force Microscopy (AFM) morphological study of peptide nano structures; assay type: physicochemical; conditions: 100 μM peptide solution on mica, air-dried, tapping mode
Protocol: Atomic Force Microscopy (AFM) images of ST14 and T14 peptides were investigated to visualize their nano structures. […] Each sample was left on the mica for about 30 seconds (s) and then rinsed with aliquots of 100 μl of Milli-Q (ultrapure) water to remove unattached peptides. The sample on the mica surface was then air-dried for AFM observation. AFM was performed with Asylum-1 MFP-3D AFM System (Asylum Research, Santa Barbara, Calif.) using a tapping mode. The images utilized an Olympus Si tip (AC240FS). The cantilever's free resonance frequency was 70 kHz.

[3] = Congo Red assay of gel formation in PBS buffer (pH 7.4); assay type: physicochemical
Protocol: A Congo Red assay was performed to determine gel formation of peptide solutions in a PBS buffer solution (pH 7.4). 100 μl of each gel at varying concentrations were plated on a glass slide. After 30 seconds, 500 μl of a 1% Congo Red solution in PBS buffer (pH 7.4) was added around and on top of each of the gel aliquots and then the excess Congo Red solution was wiped off prior to examination.
ST14 and T14 were plated at varying concentrations of 0.5%, 1.0%, 1.5%, 2.0%, 2.5% and 5.0%. Visualization of gel formation determined the success or failure of gelation at each concentration.

[4] = Autoclave stability/sterilization, mass spectrometry before and after autoclave; assay type: physicochemical; conditions: 121° C. for 25 min, high pressure saturated steam; N-terminus and C-terminus not protected
Excerpt: Sterilization is a very important step in the manufacturing process for all biomaterials, including the self-assembling peptide solutions.

[5] = Dissolution in deionized water and visual appearance of peptide solution; assay type: physicochemical
Protocol: ST14 and T14 were tested for dissolution in deionized water and appearance in solution at various concentrations.

[6] = system: C57 BL/6 Mouse Mesenchymal Stem Cells (mMSCs); assay: Cell viability (cytotoxicity) assay in hydrogel drop cultures; assay type: cell-based; conditions: 5 million cells/ml, 10% sucrose, peptide concentration over 0.75% (tested 0.50% to 1.5%)
Protocol: A cell viability (cytotoxicity) assay was performed to measure the ability of ST14 o support the viability of C57 BL/6 Mouse Mesenchymal Stem Cells (mMSCs)—a frequently-used cell line in hydrogel tissue culture systems. The hydrogel was prepared at a concentration of 2.5% and then diluted to concentrations of 1.5%, 1.25%, 1.0%, 0.75%, and 0.50% with sucrose, so that the final concentration of sucrose was 10%. Cells were washed and re-suspended in 10% sucrose to a final concentration of 5 million cells/ml. Cells were centrifuged and the supernatant was removed. The cells were re-suspended in each of the concentrations of hydrogels in 10% sucrose. The protocol was then followed for plating drop cultures and subsequent isolation as described in the PuraMatrix® Guidelines for Use (BD/Corning website).

[7] = Rheological properties at various concentrations (stress sweep, rheometer); assay type: physicochemical; conditions: 37° C.; for Loss Modulus (G′) / Storage Modulus (G′): at 1 Pa of oscillation stress; for Loss Modulus (G′) / Storage Modulus (G′) / Max. Viscosity (max η′) / Yield Stress: 10 rad/s; for Max. Viscosity (max η′) / Yield Stress: stress sweep
Protocol: The rheological properties of the ST14 were evaluated at various concentrations using a rheometer (AR500, TA Instruments) with 40 mm plates. Peptide solution (700 μL) was placed on the rheometer plate and excess solution was gently removed by Kimwipes; measurements were performed after 2 minutes of relaxation time at 37° C. The storage modulus, loss modulus, and viscosity (η′) were measured at 37° C. with the plates placed at a measuring geometry gap of 300 μm, and stress sweep tests were performed at 0.1 Pa˜1000 Pa of oscillation stress with angular frequency at 10 rad/s.

[8] = Effect of DMEM treatment on rheological properties (storage modulus); assay type: physicochemical; conditions: 1% peptide; DMEM (pH 7.4) for 2 minutes; 1 Pa, 10 rad/s; 37° C.
Protocol: The effects of Dulbecco's modified Eagle's medium (DMEM) (pH 7.4) on the rheological properties of ST14 were evaluated on a rheometer (AR500, TA Instruments) with 40 mm plates. DMEM is a cell culture medium that contains 6.4 g/L of NaCl, 3.4 g/L NaHCO3 (sodium bicarbonate), minor amounts of other salts, various amino acids, and 4.5 g/L of glucose. The pH of DMEM is 7.2±0.2 and the osmolality is 335±30 mOsm/Kg H2O; both measurements are close to human physiological fluids such as blood. Peptide solutions (1%) were kept in 4° C. for at least 48 hours before testing. To perform the experiment, 1 mL of peptide solution was gently pipetted and placed on the plate of the rheometer. 2 mL of DMEM solution was gently added around the peptide solution. The peptide solution was treated with DMEM for two minutes, then the media was removed, and the plates were placed at a measuring geometry gap at around 450 μm. Measurements were performed at 37° C. after 2 min of relaxation time. Frequency tests were performed from 1 rad/s to 100 rad/s at 1 Pa of oscillation stress.
The rheological properties of ST14 (1%) were compared before and after DMEM treatment for 2 minutes in FIG. 14. […]

[9] = concentration 0.5% in deionized water
[10] = concentration 1.0% in deionized water
[11] = concentration 1.5% in deionized water
[12] = concentration 2.0% in deionized water
[13] = concentration 2.5% in deionized water

CC(O)C(N)C(=O)NC(C(=O)NC(C(=O)NC(C(=O)NC(C(=O)NC(C(=O)NC(C(=O)NC(C(=O)NC(C(=O)NC(C(=O)NC(C(=O)NC(C(=O)NC(C(=O)NC(C(=O)O)C(C)O)C(C)O)C(C)O)C(C)O)C(C)O)C(C)O)C(C)O)C(C)O)C(C)O)C(C)O)C(C)O)C(C)O)C(C)O (stereo not drawn) [Peptide T14]
pH [1, 9]: 2.5
pH [1, 10]: 2.3
pH [1, 11]: 2.2
pH [1, 12]: 2.1
pH [1, 13]: 2.0
AFM morphology (nano structure) [2]: Aggregates have been detected
gel formation (Congo Red) ([3]; below 1%): did not form a gel
degradation during autoclave treatment (mass spec) [4]: did not degrade
appearance of solution in deionized water ([5]; 1 percent w/v to 5 percent w/v): translucent
thickness of solution in deionized water ([5]; 5 percent w/v): formed a thick solution

CC(O)C(NC(=O)C(CO)NC(=O)C(NC(=O)C(CO)NC(=O)C(NC(=O)C(CO)NC(=O)C(NC(=O)C(CO)NC(=O)C(NC(=O)C(CO)NC(=O)C(NC(=O)C(CO)NC(=O)C(NC(=O)C(N)CO)C(C)O)C(C)O)C(C)O)C(C)O)C(C)O)C(C)O)C(=O)O (stereo not drawn) [ST14] (H-STSTSTSTSTSTST-OH; configuration not given here)
pH [1, 9]: 2.5
pH [1, 10]: 2.2
pH [1, 11]: 2.1
pH [1, 12]: 2.0
pH [1, 13]: 1.9
AFM morphology (nano structure) [2]: forms self-assembled nanofibers
cell viability [6]: significantly decreased
Loss Modulus (G′) ([7]; Concentration 1): 11.4 Pa
Storage Modulus (G′) ([7]; Concentration 1): 67 Pa
Max. Viscosity (max η′) ([7]; Concentration 1): 1.2 Pa-s
Yield Stress ([7]; Concentration 1): 5.0 Pa
Loss Modulus (G′) ([7]; Concentration 1.5): 9.8 Pa
Storage Modulus (G′) ([7]; Concentration 1.5): 94 Pa
Max. Viscosity (max η′) ([7]; Concentration 1.5): 1.5 Pa-s
Yield Stress ([7]; Concentration 1.5): 7.9 Pa
Loss Modulus (G′) ([7]; Concentration 2): 17.3 Pa
Storage Modulus (G′) ([7]; Concentration 2): 136 Pa
Max. Viscosity (max η′) ([7]; Concentration 2): 2.0 Pa-s
Yield Stress ([7]; Concentration 2): 10.0 Pa
Loss Modulus (G′) ([7]; Concentration 2.5): 17.1 Pa
Storage Modulus (G′) ([7]; Concentration 2.5): 167 Pa
Max. Viscosity (max η′) ([7]; Concentration 2.5): 2.2 Pa-s
Yield Stress ([7]; Concentration 2.5): 15.9 Pa
storage modulus, yield stress, and max. viscosity versus concentration ([7]; concentrations 1 to 2.5): increased with increasing concentration
gel formation (Congo Red) ([3]; 0.5%): did not form a gel
degradation during autoclave treatment (mass spec) [4]: did not degrade
fold increase of storage moduli after DMEM treatment [8]: 6.9 fold
appearance of solution in deionized water ([5]; 1 percent w/v to 5 percent w/v): translucent
thickness of solution in deionized water ([5]; 1 percent w/v to 5 percent w/v): formed thick solutions
